From ChEMBL document CHEMBL4422649, “Soluble-type small-molecule CD4 mimics as HIV entry inhibitors” (Bioorg Med Chem Lett, 2019)
Values after ≈ are worked out from the molar mass of the structure shown.

Key:
[1] = Cytotoxicity against human TZM-b1 cells assessed as reduction in cell viability by CCK8 assay; type: cell-based
[2] = biological target: Envelope glycoprotein gp160 (Human immunodeficiency virus 1, UniProt Q6QLK5); experiment: Binding affinity to HIV1 cYTA48P envelope glycoprotein gp120 infected in human TZM-b1 cells assessed as induction of conformational changes measured after 48 hrs; type: cell-based
[3] = biological target: Envelope glycoprotein gp160 (Human immunodeficiency virus 1) (UniProt Q6QLK5); experiment: Binding affinity to HIV1 cYTA48P envelope glycoprotein gp120 infected in human TZM-b1 cells assessed as induction of conformational changes by measuring combination index at 450:1 ratio of test compound to KD-247 measured after 48 hrs; type: cell-based
[4] = Aqueous solubility of the compound in phosphate buffered saline; type: physicochemical
[5] = biological target: Envelope glycoprotein gp160 (Human immunodeficiency virus 1) (UniProt Q6QLK5); experiment: Binding affinity to HIV1 cYTA48P envelope glycoprotein gp120 infected in human TZM-b1 cells assessed as induction of conformational changes by measuring combination index at 15:1 ratio of test compound to KD-247 measured after 48 hrs; type: cell-based

Chain of Envelope glycoprotein gp160 (Q6QLK5 whole entry): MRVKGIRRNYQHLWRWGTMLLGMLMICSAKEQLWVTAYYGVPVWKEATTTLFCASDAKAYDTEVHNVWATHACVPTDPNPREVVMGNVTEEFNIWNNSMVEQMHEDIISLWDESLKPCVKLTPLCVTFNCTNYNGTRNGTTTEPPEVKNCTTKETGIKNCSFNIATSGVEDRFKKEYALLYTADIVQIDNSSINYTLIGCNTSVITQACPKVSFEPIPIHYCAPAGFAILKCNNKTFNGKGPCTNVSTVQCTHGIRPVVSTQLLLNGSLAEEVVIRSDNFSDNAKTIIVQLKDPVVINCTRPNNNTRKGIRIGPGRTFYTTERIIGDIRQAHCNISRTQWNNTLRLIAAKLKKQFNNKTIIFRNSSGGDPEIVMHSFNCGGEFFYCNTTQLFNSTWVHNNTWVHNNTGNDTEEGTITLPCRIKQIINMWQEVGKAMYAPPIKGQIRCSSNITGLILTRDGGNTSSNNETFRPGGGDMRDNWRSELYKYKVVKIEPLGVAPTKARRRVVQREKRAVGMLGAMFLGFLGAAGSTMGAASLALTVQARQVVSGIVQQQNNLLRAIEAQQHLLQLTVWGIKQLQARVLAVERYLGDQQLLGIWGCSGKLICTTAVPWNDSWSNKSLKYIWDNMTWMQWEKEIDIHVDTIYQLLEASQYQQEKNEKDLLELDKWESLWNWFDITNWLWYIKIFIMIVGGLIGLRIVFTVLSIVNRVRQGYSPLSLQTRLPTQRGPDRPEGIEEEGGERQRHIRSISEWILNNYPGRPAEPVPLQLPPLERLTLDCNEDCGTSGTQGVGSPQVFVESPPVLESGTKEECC
Chain of Envelope glycoprotein gp160 (Human immunodeficiency virus 1) (Q6QLK5 1-814): as the sequence (Q6QLK5 whole entry) above

| IC50 [2] [µM] | CI [3] | solubility [4] [mM] | CI [5] | SMILES | CC50 [1] [µM] |
| --- | --- | --- | --- | --- | --- |
| 4 |  |  |  | CC1(C)CC(NC(=O)C(=O)Nc2ccc(Cl)nc2)CC(C)(C)N1 | > 300 |
| 42 |  |  |  | CC1(C)CC(NC(=O)C(=O)Nc2ccc(Br)cn2)CC(C)(C)N1 | 71 |
| 2.3 | 0.2 |  |  | CC1(C)CC(NC(=O)C(=O)Nc2ccnc(Cl)c2)CC(C)(C)N1 | > 300 |
| 27 |  |  |  | COc1ccc(NC(=O)C(=O)NC2CC(C)(C)NC(C)(C)C2)cn1 | > 300 |
| 3.6 | 0.16 |  |  | CC1(C)CC(NC(=O)C(=O)Nc2ccnc(Br)c2)CC(C)(C)N1 | 295 |
| 1.2 |  | 3.62 (≈ 1390 µg/mL) |  | CC1(C)CC(NC(=O)C(=O)Nc2ccc(Br)nc2)CC(C)(C)N1 | > 300 |
| 2.1 | 0.34 | 6.67 (≈ 2150 µg/mL) |  | CC1(C)CC(NC(=O)C(=O)Nc2ccc(F)nc2)CC(C)(C)N1 | > 300 |
| 63 |  |  |  | CC1(C)CC(NC(=O)C(=O)Nc2ccnc(F)c2)CC(C)(C)N1 | > 300 |

The remaining lines, values behind:

| SMILES | IC50 [2] [µM] | CI [3] | solubility [4] [mM] | CI [5] | CC50 [1] [µM] |
| --- | --- | --- | --- | --- | --- |
| CC1(C)CC(NC(=O)C(=O)Nc2ccc(Cl)cn2)CC(C)(C)N1 | 61 |  |  |  | > 300 |
| CC1(C)CC(NC(=O)C(=O)Nc2cccnc2Cl)CC(C)(C)N1 | > 100 |  |  |  | > 300 |
| CC1(C)CC(NC(=O)C(=O)Nc2cnc(F)c(F)c2)CC(C)(C)N1 | 7.6 |  |  |  | > 300 |
| O=C1Nc2ccc(Cl)cc2[C@@](C#CC2CC2)(C(F)(F)F)O1 [EFAVIRENZ] | 0.0035 |  |  |  | 20 |
| CC1(C)CC(NC(=O)C(=O)Nc2ccc(F)cn2)CC(C)(C)N1 | 59 |  |  |  | > 300 |
| Cc1cccc(NC(=O)C(=O)NC2CC(C)(C)NC(C)(C)C2)n1 | > 100 |  |  |  | 257 |
| CC1(C)CC(NC(=O)C(=O)Nc2ccncc2)CC(C)(C)N1 | > 100 |  |  |  | > 300 |
| CC1(C)CC(NC(=O)C(=O)Nc2ccc(C(F)(F)F)cn2)CC(C)(C)N1 | 46 |  |  |  | > 300 |
| CC1(C)CC(NC(=O)C(=O)Nc2cccnc2)CC(C)(C)N1 | > 100 |  |  |  | > 300 |
| CC1(C)CC(NC(=O)C(=O)Nc2ccc(Cl)cc2)CC(C)(C)N1 | 0.17 |  | 1.39 (≈ 470 µg/mL) | 0.52 | 116 |
| O=C(Nc1ccc(Br)nc1)C(=O)NC1CCNC2(CCCCC2)C1 (centres undefined) | 1.2 |  |  |  | 180 |
| CC1(C)CC(NC(=O)C(=O)Nc2ccc(I)cn2)CC(C)(C)N1 | 68 |  |  |  | 205 |
| O=C(Nc1ccc(F)nc1)C(=O)NC1CCNC2(CCCCC2)C1 (centres undefined) | 0.46 |  |  |  | > 300 |
